Literature values, collected in PMC10949855 (Journal of veterinary pharmacology and therapeutics, 2022).

conditions: oral, dogs; ref KuKanich & KuKanich 2015; Matsui et al 1995; cited from earlier work

Question: Which TMAX does the source give for `CN/C(=N/CCSCc1nc[nH]c1C)NC#N` [cimetidine] here?
Answer: Its TMAX is 1.8 h.

Question: Which TMAX does the source give for `O=C(N[C@H](CO)[C@H](O)c1ccc([N+](=O)[O-])cc1)C(Cl)Cl` [chloramphenicol] here?
Answer: Its TMAX is 1.3 h.

Question: With `CC(=O)N1CCN(c2ccc(OCC3COC(Cn4ccnc4)(c4ccc(Cl)cc4Cl)O3)cc2)CC1` (stereo not shown) [ketoconazole] as the compound, how does the TMAX read?
Answer: Its TMAX is 2 h.

Question: For `CN(C)CCCC1(c2ccc(F)cc2)OCc2cc(C#N)ccc21` (stereo not shown) [citalopram], which TMAX is on record?
Answer: Its TMAX is 1 h.
